Target: T1, 11β-hydroxysteroid dehydrogenase (HSD) 1 (Homo sapiens, UniProt P28845)
T1 construct: detecting cortisol generated from cortisterone by human liver microsomes; from tissue; host or cells: human liver microsomes
Experiment: In vitro inhibition of 11β-HSD1, HTRF detection of cortisol generated from cortisone by human liver microsomes
Assay type: biochemical
Settings: compound concentration 1 μM, 100% indicates no inhibition, zero or below zero indicates complete inhibition
Description: Briefly, compounds are incubated for 1 hour at 37° C. in Tris buffer (20 mM tris, 5 mM EDTA, pH 6.0) containing NADPH (200 μM) and cortisone (80 nM). Cortisol generated in the reaction is then detected with a competitive immunoassay, involving two HTRF conjugates: cortisol linked to XL665 and anti-cortisol antibody labeled with Europium cryptate. The incubation period for detection reaction is typically 2 hours. The amount of cortisol is determined by reading the time-resolved fluorescence of the wells (Ex 320/75 nm; Em 615/8.5 nm and 665/7.5 nm). The ratio of the two emission signals is then calculated (Em665*10000/Em615). […] Each assay also contains a calibration curve with cortisol to transform the fluorescent data into cortisol concentrations. Percent inhibition (% CTL) of each compound is determined relative to the carbenoxolone signal and IC50 curves are generated.
The % CTL values of some example compounds at a concentration of 1 μM are provided in the following Table 2 wherein 100% indicates no inhibition and a value of zero or below zero indicates complete inhibition. The measurement of % CTL is described hereinbefore.

T1 sequence (P28845 whole entry): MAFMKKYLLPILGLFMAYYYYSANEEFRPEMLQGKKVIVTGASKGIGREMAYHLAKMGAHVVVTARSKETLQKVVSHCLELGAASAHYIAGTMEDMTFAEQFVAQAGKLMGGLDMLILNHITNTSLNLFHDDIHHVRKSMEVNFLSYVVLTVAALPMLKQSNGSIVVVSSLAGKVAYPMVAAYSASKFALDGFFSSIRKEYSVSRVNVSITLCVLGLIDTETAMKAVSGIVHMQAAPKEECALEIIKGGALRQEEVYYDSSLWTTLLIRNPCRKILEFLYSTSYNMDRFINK

Structure (SMILES)	11β-HSD 1 inhibitory activity (% CTL at 1 μM)
COC(=O)C12CC3CC(C1)CC(C14CC5CC(CC(C(=O)O)(C5)C1)C4)(C3)C2 [Example 1]	−7 % CTL
CNC(=O)C12CC3CC(C1)CC(C14CC5CC(CC(C(=O)O)(C5)C1)C4)(C3)C2 [Example 2]	29 % CTL
CC(C)(O)C12CC3CC(C1)CC(C14CC5CC(CC(C(=O)O)(C5)C1)C4)(C3)C2 [Example 3]	−11 % CTL
CN(C)C(=O)C12CC3CC(C1)CC(C14CC5CC(CC(C(=O)O)(C5)C1)C4)(C3)C2 [Example 4]	−13 % CTL
NC(=O)C12CC3CC(C1)CC(C14CC5CC(CC(C(=O)O)(C5)C1)C4)(C3)C2 [Example 5]	50 % CTL
N#CC12CC3CC(C1)CC(C14CC5CC(CC(C(=O)O)(C5)C1)C4)(C3)C2 [Example 6]	1 % CTL
CC(C)(C)OC(=O)NC12CC3CC(C1)CC(C14CC5CC(CC(C(=O)O)(C5)C1)C4)(C3)C2 [Example 7]	26 % CTL
NC12CC3CC(C1)CC(C14CC5CC(CC(C(=O)O)(C5)C1)C4)(C3)C2 [Example 8]	95 % CTL
CN(Cc1ccccc1)C(=O)C12CC3CC(C1)CC(C14CC5CC(CC(C(=O)O)(C5)C1)C4)(C3)C2 [Example 9]	49 % CTL
CN(CCc1ccccc1)C(=O)C12CC3CC(C1)CC(C14CC5CC(CC(C(=O)O)(C5)C1)C4)(C3)C2 [Example 10]	−3 % CTL
O=C(O)C12CC3CC(C1)CC(C14CC5CC(CC(C(=O)N6CCCC6)(C5)C1)C4)(C3)C2 [Example 11]	−11 % CTL
O=C(O)C12CC3CC(C1)CC(C14CC5CC(CC(C(=O)N6CCOCC6)(C5)C1)C4)(C3)C2 [Example 12]	1 % CTL
O=C(O)C12CC3CC(C1)CC(C14CC5CC(CC(C(=O)NCCO)(C5)C1)C4)(C3)C2 [Example 13]	53 % CTL
O=C(O)C12CC3CC(C1)CC(C14CC5CC(CC(CO)(C5)C1)C4)(C3)C2 [Example 14]	−5 % CTL
O=C(O)C12CC3CC(C1)CC(C14CC5CC(CC(COc6ccccn6)(C5)C1)C4)(C3)C2 [Example 15]	34 % CTL
CC(=O)NC12CC3CC(C1)CC(C14CC5CC(CC(C(=O)O)(C5)C1)C4)(C3)C2 [Example 16]	69 % CTL
CC(C)N(C)C(=O)C12CC3CC(C1)CC(C14CC5CC(CC(C(=O)O)(C5)C1)C4)(C3)C2 [Example 17]	−26 % CTL
CCN(C)C(=O)C12CC3CC(C1)CC(C14CC5CC(CC(C(=O)O)(C5)C1)C4)(C3)C2 [Example 18]	−26 % CTL
N#CNC(=O)C12CC3CC(C1)CC(C14CC5CC(CC(C(=O)O)(C5)C1)C4)(C3)C2 [Example 19]	19 % CTL
O=C(O)C12CC3CC(C1)CC(C14CC5CC(CC(C(=O)N6CCC6)(C5)C1)C4)(C3)C2 [Example 20]	7 % CTL
O=C(O)C12CC3CC(C1)CC(C14CC5CC(CC(c6nnn[nH]6)(C5)C1)C4)(C3)C2 [Example 21]	69 % CTL
CN1CCN(C(=O)C23CC4CC(C2)CC(C25CC6CC(CC(C(=O)O)(C6)C2)C5)(C4)C3)CC1 [Example 22]	37 % CTL
COc1ccc(CCCN(C)C(=O)C23CC4CC(C2)CC(C25CC6CC(CC(C(=O)O)(C6)C2)C5)(C4)C3)cc1 [Example 23]	−18 % CTL
COc1ccc(C(=O)C23CC4CC(C2)CC(C25CC6CC(CC(C(=O)O)(C6)C2)C5)(C4)C3)cc1 [Example 24]	−33 % CTL
O=C(O)C12CC3CC(C1)CC(C14CC5CC(CC(c6nnc(-c7ccccc7)o6)(C5)C1)C4)(C3)C2 [Example 26]	44 % CTL

Structure (SMILES)	11β-HSD 1 inhibitory activity (% CTL at 1 μM)
O=C(O)C12CC3CC(C1)CC(C14CC5CC(CC(c6nc7ccccc7o6)(C5)C1)C4)(C3)C2 [Example 27]	12 % CTL
O=C(O)C12CC3CC(C1)CC(C14CC5CC(CC(C(=O)Nc6ccccc6)(C5)C1)C4)(C3)C2 [Example 28]	96 % CTL
CN(C(=O)C12CC3CC(C1)CC(C14CC5CC(CC(C(=O)O)(C5)C1)C4)(C3)C2)C1CCCCC1 [Example 29]	−8 % CTL
CN(C(=O)C12CC3CC(C1)CC(C14CC5CC(CC(C(=O)O)(C5)C1)C4)(C3)C2)c1ccccc1 [Example 30]	30 % CTL
CN(C(=O)C12CC3CC(C1)CC(C14CC5CC(CC(C(=O)O)(C5)C1)C4)(C3)C2)C1CCCNC1 (stereo not shown) [Example 31]	61 % CTL
Cn1c(C23CC4CC(C2)CC(C25CC6CC(CC(C(=O)O)(C6)C2)C5)(C4)C3)nc2ccccc21 [Example 32]	8 % CTL
COc1ccc(N(C)C(=O)C23CC4CC(C2)CC(C25CC6CC(CC(C(=O)O)(C6)C2)C5)(C4)C3)cc1 [Example 33]	81 % CTL
CN(C(=O)C12CC3CC(C1)CC(C14CC5CC(CC(C(=O)O)(C5)C1)C4)(C3)C2)c1ccc(-c2ccccc2)cc1 [Example 34]	36 % CTL
CCN(C(=O)C12CC3CC(C1)CC(C14CC5CC(CC(C(=O)O)(C5)C1)C4)(C3)C2)C1CCCCC1 [Example 35]	−3 % CTL
CN(C(=O)C12CC3CC(C1)CC(C14CC5CC(CC(C(=O)O)(C5)C1)C4)(C3)C2)C1CCC(c2ccccc2)CC1 (stereo not shown) [Example 36]	13 % CTL
O=C(O)C12CC3CC(C1)CC(C14CC5CC(CC(C6=NCc7ccccc7N6)(C5)C1)C4)(C3)C2 [Example 37]	62 % CTL
CN(C(=O)C12CC3CC(C1)CC(C14CC5CC(CC(C(=O)O)(C5)C1)C4)(C3)C2)C1CCC(C(C)(C)C)CC1 (stereo not shown) [Example 38]	7 % CTL
O=C(O)C12CC3CC(C1)CC(C14CC5CC(CC(C(=O)N(CCc6ccccc6)C6CCCCC6)(C5)C1)C4)(C3)C2 [Example 39]	53 % CTL
CN(C(=O)C12CC3CC(C1)CC(C14CC5CC(CC(C(=O)O)(C5)C1)C4)(C3)C2)C1CCCC1 [Example 40]	−20 % CTL
O=C(O)C12CC3CC(C1)CC(C14CC5CC(CC(c6nc7ccccc7n6CCc6ccccc6)(C5)C1)C4)(C3)C2 [Example 41]	0 % CTL
O=C(O)C12CC3CC(C1)CC(C14CC5CC(CC(C(=O)N6Cc7ccccc7C6)(C5)C1)C4)(C3)C2 [Example 42]	−36 % CTL
O=C(O)C12CC3CC(C1)CC(C14CC5CC(CC(C(=O)N6CCc7ccccc7C6)(C5)C1)C4)(C3)C2 [Example 43]	−20 % CTL
N#Cc1ccc2c(c1)CN(C(=O)C13CC4CC(C1)CC(C15CC6CC(CC(C(=O)O)(C6)C1)C5)(C4)C3)CC2 [Example 44]	−17 % CTL
O=C(O)c1ccc(Oc2ccc3c(c2)CN(C(=O)C24CC5CC(C2)CC(C26CC7CC(CC(C(=O)O)(C7)C2)C6)(C5)C4)CC3)cc1 [Example 45]	8 % CTL
CN(C)C(=O)c1ccc(Oc2ccc3c(c2)CN(C(=O)C24CC5CC(C2)CC(C26CC7CC(CC(C(=O)O)(C7)C2)C6)(C5)C4)CC3)cc1 [Example 46]	0 % CTL
COCC1CCCN1C(=O)C12CC3CC(C1)CC(C14CC5CC(CC(C(=O)O)(C5)C1)C4)(C3)C2 (stereo not shown) [Example 47]	−15 % CTL
O=C(O)C12CC3CC(C1)CC(C14CC5CC(CC(C(=O)N6CCc7cc(Br)ccc7C6)(C5)C1)C4)(C3)C2 [Example 49]	24 % CTL
O=C(O)C12CC3CC(C1)CC(C14CC5CC(CC(c6ncc7ccccc7n6)(C5)C1)C4)(C3)C2 [Example 50]	−9 % CTL
O=C(O)C12CC3CC(C1)CC(C14CC5CC(CC(C(=O)N6CCc7ccccc76)(C5)C1)C4)(C3)C2 [Example 51]	4 % CTL

— US8309597B2, “1,1′-diadamantyl carboxylic acids, medicaments containing such compounds and their use” (Boehringer Ingelheim International GmbH, priority 2008, dated 2012)
